Experimental data reported in patent publication US9789102B2, “H3 receptor antagonist for use in the treatment of alzheimer's disease” (SANOFI, priority 2012, dated 2017).

Tested on: THY-Tau22 transgenic mice
Assay: Cognitive deficits after 6 months of treatment
Assay type: in vivo
Settings: clinically relevant doses

For `CN1CCC[C@H]1CCNS(=O)(=O)c1ccc2c(c1)CN(CC1CCCCC1)CC2` [2-(cyclohexylmethyl)-N-{2-[(2S)-1-methylpyrrolidin-2-yl]ethyl}-1,2,3,4-tetrahydroisoquinoline-7-sulfonamide difumarate monohydrate], the cognitive deficits was “decreases cognitive deficits”.
